Columns and labels:
[1] = molar heat capacity at constant pressure; xn = mol fraction of the nth substance listed; settings: 101.3 kPa, Liquid, Small sample (50 mg) DSC
[2] = excess molar enthalpy (molar enthalpy of mixing); xn = mol fraction of the nth substance listed; settings: 303.15 K, 101.3 kPa, Liquid
[3] = xn = mol fraction of the nth substance listed; settings: 101.3 kPa, Liquid, Vibrating tube method

CCCCn1cc[n+](C)c1.COS(=O)(=O)[O-] [1-butyl-3-methylimidazolium methyl sulfate] + O
Settings | mass density, [3] [kg/m3] | molar heat capacity at constant pressure, [1] [J/K/mol]
293.15 K, x1 = 0.0213 | 1041.7 | 84.8
293.15 K, x1 = 0.0489 | 1081 | 95.3
293.15 K, x1 = 0.0996 | 1123.8 | 112
293.15 K, x1 = 0.1975 | 1162.3 | 143.8
293.15 K, x1 = 0.2938 | 1180 | 175.2
293.15 K, x1 = 0.3948 | 1190.5 | 207.8
293.15 K, x1 = 0.4809 | 1196.3 | 235.7
293.15 K, x1 = 0.5724 | 1200.7 | 265.9
293.15 K, x1 = 0.6552 | 1203.6 | 293.4
293.15 K, x1 = 0.8002 | 1207.3 | 343.5
293.15 K, x1 = 0.8199 | 1207.7 | –
293.15 K, x1 = 0.9554 | 1210 | 397.9
298.15 K, x1 = 0.0213 | 1039.7 | 84.8
298.15 K, x1 = 0.0489 | 1078.3 | 95.6
298.15 K, x1 = 0.0996 | 1120.5 | 112.6
298.15 K, x1 = 0.1975 | 1158.8 | 144.9
298.15 K, x1 = 0.2938 | 1176.5 | 176.5
298.15 K, x1 = 0.3948 | 1187 | 209.3
298.15 K, x1 = 0.4809 | 1192.9 | 237.3
298.15 K, x1 = 0.5724 | 1197.3 | 267.7
298.15 K, x1 = 0.6552 | 1200.3 | 295.3
298.15 K, x1 = 0.8002 | 1204 | 345.5
298.15 K, x1 = 0.8199 | 1204.3 | –
298.15 K, x1 = 0.9554 | 1206.7 | 400.1
303.15 K, x1 = 0.0213 | 1037.5 | 84.9
303.15 K, x1 = 0.0489 | 1075.4 | 96
303.15 K, x1 = 0.0996 | 1117.1 | 113.3
303.15 K, x1 = 0.1975 | 1155.2 | 146.1
303.15 K, x1 = 0.2938 | 1173 | 177.8
303.15 K, x1 = 0.3948 | 1183.6 | 210.8
303.15 K, x1 = 0.4809 | 1189.5 | 239
303.15 K, x1 = 0.5724 | 1193.9 | 269.5
303.15 K, x1 = 0.6552 | 1196.9 | 297.3
303.15 K, x1 = 0.8002 | 1200.7 | 347.6
303.15 K, x1 = 0.8199 | 1201 | –
303.15 K, x1 = 0.9554 | 1203.4 | 402.3
308.15 K, x1 = 0.0213 | 1035.2 | 84.9
308.15 K, x1 = 0.0489 | 1072.4 | 96.2
308.15 K, x1 = 0.0996 | 1113.6 | 113.9
308.15 K, x1 = 0.1975 | 1151.7 | 147.1
308.15 K, x1 = 0.2938 | 1169.5 | 179
308.15 K, x1 = 0.3948 | 1180.2 | 212.2
308.15 K, x1 = 0.4809 | 1186.1 | 240.5
308.15 K, x1 = 0.5724 | 1190.6 | 271.2
308.15 K, x1 = 0.6552 | 1193.6 | 299.2
308.15 K, x1 = 0.8002 | 1197.4 | 349.7
308.15 K, x1 = 0.8199 | 1197.7 | –
308.15 K, x1 = 0.9554 | 1200.1 | 404.5
313.15 K, x1 = 0.0213 | 1032.7 | 84.9
313.15 K, x1 = 0.0489 | 1069.3 | 96.5
313.15 K, x1 = 0.0996 | 1110.1 | 114.5
313.15 K, x1 = 0.1975 | 1148 | 148.1
313.15 K, x1 = 0.2938 | 1166 | 180.3
313.15 K, x1 = 0.3948 | 1176.7 | 213.6
313.15 K, x1 = 0.4809 | 1182.7 | 242.1
313.15 K, x1 = 0.5724 | 1187.2 | 272.9
313.15 K, x1 = 0.6552 | 1190.3 | 301.2
313.15 K, x1 = 0.8002 | 1194.1 | 351.7
313.15 K, x1 = 0.8199 | 1194.4 | –
313.15 K, x1 = 0.9554 | 1196.8 | 406.7
318.15 K, x1 = 0.0213 | 1030.1 | 85.1
318.15 K, x1 = 0.0489 | 1066.2 | 96.8
318.15 K, x1 = 0.0996 | 1106.6 | 115.2
318.15 K, x1 = 0.1975 | 1144.4 | 149.1
318.15 K, x1 = 0.2938 | 1162.5 | 181.6
318.15 K, x1 = 0.3948 | 1173.3 | 215
318.15 K, x1 = 0.4809 | 1179.3 | 243.7
318.15 K, x1 = 0.5724 | 1183.9 | 274.6
318.15 K, x1 = 0.6552 | 1186.9 | 303.1
318.15 K, x1 = 0.8002 | 1190.8 | 353.8
318.15 K, x1 = 0.8199 | 1191.1 | –
318.15 K, x1 = 0.9554 | 1193.6 | 408.9

[2]
Settings | excess molar enthalpy [kcal/mol]
x1 = 0.0506 | -0.0676
x1 = 0.1003 | -0.0966
x1 = 0.1461 | -0.115
x1 = 0.2018 | -0.125
x1 = 0.299 | -0.128
x1 = 0.4021 | -0.117
x1 = 0.5447 | -0.0987
x1 = 0.6795 | -0.0755
x1 = 0.8434 | -0.0413

— the NIST ThermoML archive (doi:10.1016/j.jct.2008.10.002)
